# Several values for one entry are separate records, joined by “and”; a condition that tells them apart may be missing. Identical values can stand only once. Like-named read-outs stand apart in the source and are kept apart here.
# What was measured:
# Format in all cases: in vivo, Mouse (ICR:CD-1)
# [1] = tested on: MES mouse model of seizures; assay: Maximal Electroshock (MES) seizure study; details: for Effect in MES study (latency to tonic hindlimb seizure) vs vehicle: 200 mg/kg IP
# Experimental: Route(s) of administration: Intraperitoneal (i.p.) and per oral (p.o.)
# (§1) Vehicle for the test compounds: 1:1:18 ethanol:cremophor (Kolliphor) EL:0.9% saline
# Vehicle for phenytoin: 0.5% MC in water
# Dose Levels: 100-200 mg/kg (Table 2), Phenytoin 60 mg/kg
# Interval between dose and evaluation: 30 min for test articles and phenytoin, 60 min for CBD
# Animals were administered vehicle, phenytoin, CBD or test compounds and gross behavioural observations were done for 30 minutes. Proparacaine hydrochloride ophthalmic solution (Butler AHS, Dublin, Ohio) was applied approximately 10 minutes prior to testing to numb the eyes. Thirty to sixty minutes after administration of vehicle, phenytoin, CBD or test compounds, 0.9% saline solution (sodium chloride in water) was applied to both eyes and electro-convulsions were produced by an alternating current delivered via corneal electrodes by a Rodent Shocker generator at a frequency of 60 Hz (Harvard Apparatus, Holliston, Mass.). Parameters for the ICR:CD1 mice were 0.2 s stimulus duration at an intensity of 25 mA. The criterion for seizure occurrence were presence of a tonic hind limb extension, defined as extension exceeding a 90-degree angle with the plane of the body. […] Any seizure activity (i.e. clonic seizures defined as rapid spasms or jerky movements of the limbs) prior to tonic hind limb seizure were recorded as presence of seizure (noted as 1-yes, 0-no). After seizure exhibition or 20-second timeout, mice were euthanized via cervical dislocation.
# (§2) The data was expressed as mean+SEM. Statistical analysis using one-way ANOVA with post-hoc Fisher's LSD test was used to determine statistical significance compared to the vehicle-treated animals.
# [2] = tested on: PTZ mouse model of seizures; assay: PTZ-induced seizures study; details: for Protection from tonic hindlimb seizures (PTZ) vs vehicle / Protection from clonic seizures (PTZ) vs vehicle: 200 mg/kg IP, PTZ 100 mg/kg i.p.
# Experimental: Route(s) of administration: Intraperitoneal (i.p.) and per oral (p.o.) (Diazepam)
# as §1
# Vehicle for diazepam: 0.5% MC, 0.1% Tween 80 in water
# Interval between dose and evaluation: 30 min for test articles and diazepam, 60 min for CBD
# Mice were acclimated to the procedure room for at least 30 minutes. Pentylenetetrazole (PTZ; SigmaAldrich) was formulated in water to a concentration of 20 mg/ml. Injections of PTZ were made at a volume of 5 ml/kg to produce a final dose of 100 mg/kg. PTZ injections were i.p. Diazepam was formulated at a concentration of 2 mg/ml and administered at volume of 10 ml/kg to produce a final dose of 20 mg/kg. Time to initial myoclonic and tonic hindlimb extensor response was measured. A 10-min maximum latency to seizure was imposed.
# as §2
# [3] = PK study: plasma levels after i.p. administration (LC/MS/MS); details: 100 mg/kg i.p.; for Time of maximal concentration in plasma after the injection: sampling at 30, 60, 120 min; for concentration at 30 min / concentration at 60 min / concentration at 120 min: CD-1, mouse, plasma, intraperitoneal, 100 mg/kg
# Experimental: Route(s) of administration: Intraperitoneal (i.p.)
# Vehicle for the test compounds and CBD: 1:1:18 ethanol:cremophor (Kolliphor) EL:0.9% saline
# IP administration: 0.5 h (30 min), 1 h, 2 h,
# For testing of each compound, six CD-1 mice were divided into 2 groups of 3. Animals were administered test agents via i.p. route and blood collected at 30, 60 and 120 min, administration as outlined in Table 1. Blood samples were collected in EDTA-coated microfuge tubes, inverted and placed on an ice pack prior to centrifugation and storage at −70° C. Samples were extracted using an acetonitrile/protein precipitation method and levels of test agent analysed by LC/MS/MS.
# Bioanalytical detection method was developed using an LC/MS/MS (ABI 5000 or 5500). Standard curves of the test agent were prepared in an appropriate biological matrix (plasma). Levels of test article was measured in plasma as per the developed method.
# Levels were determined by extrapolating the concentration from a standard curve using linear regression analysis. Method development and bioanalysis was performed by a partner company, Keystone Bioanalytical (North Wales, Pa., US).
# [4] = 30 min pretreatment, listed as (−)-trans CBD-PET-OH
# [5] = 30 min pretreatment, listed as CBD-PET-OH
# [6] = 30 min pretreatment, listed as (−)-trans CBD-PET
# [7] = 30 min pretreatment, listed as CBD-PET
structure (smiles),measurement,setting,value
"C=C(C)[C@@H]1CCC(C)=C[C@H]1c1c(O)cc(CCc2ccc(O)cc2)cc1O [(−)-trans-CBD-PET-OH, (1′R,2′R)-4-(4-hydroxyphenethyl)-5′-methyl-2′-(prop-1-ene-2-yl)-1′,2′,3′,4′-tetrahydro-[1,1′-biphenyl]-2,6-diol]",Effect in MES study (latency to tonic hindlimb seizure) vs vehicle,[1]; [4],significantly different from vehicle
same,Effect in MES study (latency to tonic hindlimb seizure) vs vehicle,[1]; [5],effective
same,Protection from tonic hindlimb seizures (PTZ) vs vehicle,[2]; [4],significant effect
same,Protection from tonic hindlimb seizures (PTZ) vs vehicle,[2]; [5],particularly effective against tonic seizures
same,(—)-trans-CBD-PET-OH in plasma,"[3]; 30 min, individual animals",8897.4 ng/mL and 8936.2 ng/mL
same,(—)-trans-CBD-PET-OH in plasma,"[3]; 60 min, individual animals",8877.8 ng/mL and 8055.5 ng/mL
same,(—)-trans-CBD-PET-OH in plasma,"[3]; 120 min, individual animals",2831.1 ng/mL and 3274.9 ng/mL
same,Time of maximal concentration in plasma after the injection,[3],30 min
same,concentration at 30 min,"[3]; 30 min, average of 3 mice, read-out: Average (ng/ml), (—)-trans-CBD-PET-OH in plasma",8120 ng/mL
same,concentration at 30 min,"[3]; 30 min, individual animals, read-out: (—)-trans-CBD-PET-OH in plasma",6520 ng/mL
same,concentration at 60 min,"[3]; 60 min, average of 3 mice, read-out: Average (ng/ml), (—)-trans-CBD-PET-OH in plasma",7920 ng/mL
same,concentration at 60 min,"[3]; 60 min, individual animals, read-out: (—)-trans-CBD-PET-OH in plasma",6840 ng/mL
same,concentration at 120 min,"[3]; 120 min, average of 3 mice, read-out: Average (ng/ml), (—)-trans-CBD-PET-OH in plasma",3460 ng/mL
same,concentration at 120 min,"[3]; 120 min, individual animals, read-out: (—)-trans-CBD-PET-OH in plasma",4290 ng/mL
"CN1C(=O)CN=C(c2ccccc2)c2cc(Cl)ccc21 [diazepam, reference compound]","Protection from the seizures (PTZ, clonic and tonic hindlimb)","[2]; 30 mg/kg PO (Table 3), 30 min pretreatment, positive control",100%
"C=C(C)[C@@H]1CCC(C)=C[C@H]1c1c(O)cc(CCc2ccccc2)cc1O [(−)-trans-CBD-PET, (1′R,2′R)-5′-methyl-4-phenethyl-2′-(prop-1-ene-2-yl)-1′,2′,3′,4′-tetrahydro-[1,1′-biphenyl]-2,6-diol]",Effect in MES study (latency to tonic hindlimb seizure) vs vehicle,[1]; 30 min pretreatment,inactive
same,Protection from clonic seizures (PTZ) vs vehicle,[2]; [6],significant protection
same,Protection from tonic hindlimb seizures (PTZ) vs vehicle,[2]; [6],significant effect
same,Protection from clonic seizures (PTZ) vs vehicle,[2]; [7],activity against both clonic and tonic seizures
same,Protection from tonic hindlimb seizures (PTZ) vs vehicle,[2]; [7],activity against both clonic and tonic seizures
same,(—)-trans-CBD-PET in plasma,"[3]; 30 min, individual animals",3519.2 ng/mL and 3872.3 ng/mL
same,(—)-trans-CBD-PET in plasma,"[3]; 60 min, individual animals",2729.5 ng/mL and 1728.7 ng/mL
same,(—)-trans-CBD-PET in plasma,"[3]; 120 min, individual animals",2188.6 ng/mL and 770.3 ng/mL and 982.7 ng/mL
same,Time of maximal concentration in plasma after the injection,[3],30 min
same,concentration at 30 min,"[3]; 30 min, average of 3 mice, read-out: Average (ng/ml), (—)-trans-CBD-PET in plasma",3810 ng/mL
same,concentration at 30 min,"[3]; 30 min, individual animals, read-out: (—)-trans-CBD-PET in plasma",4030 ng/mL
same,concentration at 60 min,"[3]; 60 min, average of 3 mice, read-out: Average (ng/ml), (—)-trans-CBD-PET in plasma",2140 ng/mL
same,concentration at 60 min,"[3]; 60 min, individual animals, read-out: (—)-trans-CBD-PET in plasma",1960 ng/mL
same,concentration at 120 min,"[3]; 120 min, average of 3 mice, read-out: Average (ng/ml), (—)-trans-CBD-PET in plasma",1310 ng/mL
"O=C1NC(=O)C(c2ccccc2)(c2ccccc2)N1 [phenytoin, reference compound]",Protection from the seizures (MES),"[1]; 60 mg/kg PO, 30 min pretreatment, positive control",100%
"C=C(C)[C@@H]1CCC(C)=C[C@H]1c1c(O)cc(CCCCC)cc1O [Cannabidiol, reference compound]",Effect in MES model vs vehicle,"[1]; 100 mg/kg IP, 60 min prior to MES",did not produce a significant effect
same,Effect in PTZ model vs vehicle,"[2]; 100 mg/kg IP, 60 min prior to PTZ",did not produce a significant effect
